Assay [1] concerns the target T1, human FPR1 (Homo sapiens, UniProt P21462).
T1 sequence (P21462 1-350): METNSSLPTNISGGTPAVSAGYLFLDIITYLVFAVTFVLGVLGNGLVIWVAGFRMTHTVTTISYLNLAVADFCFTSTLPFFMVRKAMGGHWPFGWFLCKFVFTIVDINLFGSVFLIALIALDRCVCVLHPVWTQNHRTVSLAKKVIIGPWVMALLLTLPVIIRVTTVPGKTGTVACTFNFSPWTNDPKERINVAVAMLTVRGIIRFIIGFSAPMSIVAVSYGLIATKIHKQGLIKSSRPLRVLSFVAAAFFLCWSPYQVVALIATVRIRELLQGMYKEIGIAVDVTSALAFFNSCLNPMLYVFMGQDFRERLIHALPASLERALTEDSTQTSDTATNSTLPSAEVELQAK
As to the kind of experiment: FPR1 cyclic adenosine monophosphate (cAMP) assay. The assay is classed as cell-based. The note with it: CHO cells overexpressing human FPR1; forskolin 10 μM; inhibition of cAMP production; HTRF; read-out: hFPR1 cAMP2 EC50. Summed up:
(§1)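 CHO cells overexpressing human FPR1 (4,000/well) or FPR2 (2,000/well) were incubated 30 min at room temperature with compound (0.020 nM to 100 μM, 1% DMSO), IBMX 200 μM, and forskolin at 10 μM (FPR1) or 5 μM (FPR2), all final. HTRF cAMP read-out; inhibition fitted by 4-parameter logistic equation.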
(In general: cAMP levels reflect the balance of adenylyl cyclase and phosphodiesterase activity.)

In assay [2] the target is T2, human FPR2 (Homo sapiens, UniProt P25090).
T2 sequence (P25090 1-351): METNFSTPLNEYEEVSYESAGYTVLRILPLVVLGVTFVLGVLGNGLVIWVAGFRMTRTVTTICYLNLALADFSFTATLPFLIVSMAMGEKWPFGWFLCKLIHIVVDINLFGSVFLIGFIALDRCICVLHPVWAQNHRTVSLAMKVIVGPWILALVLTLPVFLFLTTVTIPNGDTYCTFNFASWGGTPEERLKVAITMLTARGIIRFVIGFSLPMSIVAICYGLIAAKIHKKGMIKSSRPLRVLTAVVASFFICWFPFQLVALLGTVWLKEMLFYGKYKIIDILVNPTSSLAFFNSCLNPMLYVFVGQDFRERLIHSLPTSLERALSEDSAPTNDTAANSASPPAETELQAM
As to the kind of experiment: FPR2 cyclic adenosine monophosphate (cAMP) assay. It counts as cell-based. The settings on record: CHO cells overexpressing human FPR2; forskolin 5 μM; inhibition of cAMP production; HTRF; read-out: hFPR2 cAMP2 EC50. A digest of the protocol: as §1

A value given as a limit tells only on which side of the number the result lay.

A word on the EC50: it is the concentration that produces a half-maximal response. In the case of `COc1cc(F)c(-c2c(NC(=O)c3ccc(OC(F)F)cc3)c(=O)n(-c3nc(C(F)(F)F)ccc3OCC3(C)COC3)n2C)c(F)c1` [Example 358, N-(5-(2,6-Difluoro-4-methoxyphenyl)-1-methyl-2-(3-((3-methyloxetan-3-yl)methoxy)-6-(trifluoromethyl)pyridin-2-yl)-3-oxo-2,3-dihydro-1H-pyrazol-4-yl)-4-(difluoromethoxy)benzamide], the concentration for a half-maximal effect (EC50) in assay [1] is more than 10000 nM; in assay [2] it was 9 nM.

For `CCc1cc(F)c(-c2c(NC(=O)c3ccc(OC(F)(F)F)cc3)c(=O)n(-c3cccc(C(C)(C)O)n3)n2C)c(F)c1` [Example 403, N-(5-(4-ethyl-2,6-difluorophenyl)-2-(6-(2-hydroxypropan-2-yl)pyridin-2-yl)-1-methyl-3-oxo-2,3-dihydro-1H-pyrazol-4-yl)-4-(trifluoromethoxy)benzamide], the EC50 in assay [1] is 1700 nM; in assay [2], 6 nM.

On to `COc1ccc(-c2c(NC(=O)c3ccc(OC(F)F)cc3)c(=O)n(-c3ncccc3C(F)(F)F)n2C)cc1F` [Example 293, 4-(difluoromethoxy)-N-[5-(3-fluoro-4-methoxyphenyl)-1-methyl-3-oxo-2-[3-(trifluoromethyl)pyridin-2-yl]-2,3-dihydro-1H-pyrazol-4-yl]benzamide], for which the EC50 in assay [1] is 1200 nM; in assay [2], 9 nM.

As to `COc1cc(F)c(-c2c(NC(=O)c3ccc(OC(F)F)cc3)c(=O)n(-c3cc(OCC4CCCO4)cc(C)n3)n2C)c(F)c1` (centres unmarked) [Example 396, N-(5-(2,6-Difluoro-4-methoxyphenyl)-1-methyl-2-(6-methyl-4-((tetrahydrofuran-2-yl)methoxy)pyridin-2-yl)-3-oxo-2,3-dihydro-1H-pyrazol-4-yl)-4-(difluoromethoxy)benzamide], the EC50 was determined as 300 nM in assay [1] and 2 nM in assay [2].

On to `COc1cc(F)c(-c2c(NC(=O)c3ccc(OC(F)F)cc3)c(=O)n(-c3cc(C)cc(Cl)c3)n2C)c(F)c1` [Example 134, N-[2-(3-chloro-5-methylphenyl)-5-(2,6-difluoro-4-methoxyphenyl)-1-methyl-3-oxo-2,3-dihydro-1H-pyrazol-4-yl]-4-(difluoromethoxy)benzamide], for which the EC50 in assay [1] was more than 10000 nM; in assay [2], 10 nM.

Consider `COc1cc(F)c(-c2c(NC(=O)c3ccc(OC(F)F)cc3)c(=O)n(-c3nc(NCC(=O)N(C)C)ccc3C(F)(F)F)n2C)c(F)c1` [Example 252, N-[5-(2,6-difluoro-4-methoxyphenyl)-2-(6-{[(dimethylcarbamoyl)methyl]-amino}-3-(trifluoromethyl)pyridin-2-yl)-1-methyl-3-oxo-2,3-dihydro-1H-pyrazol-4-yl]-4-(difluoromethoxy)benzamide], for which the EC50 was more than 10000 nM in assay [1] and 12 nM in assay [2].

Regarding `COc1cc(F)c(-c2c(NC(=O)c3ccc(OC(F)F)cc3)c(=O)n(-c3cc(OCC(C)O)cc(C)n3)n2C)c(F)c1` (centres unmarked) [Example 394, N-(5-(2,6-Difluoro-4-methoxyphenyl)-2-(4-(2-hydroxypropoxy)-6-methylpyridin-2-yl)-1-methyl-3-oxo-2,3-dihydro-1H-pyrazol-4-yl)-4-(difluoromethoxy)benzamide], the figures for the EC50 in assay [1] and in assay [2] were 740 nM and 5 nM, respectively.

As to `COc1cc(F)c(-c2c(NC(=O)c3ccc(OC(F)F)cc3)c(=O)n(-c3cccc(C(F)F)n3)n2C)c(F)c1` [Example 67, N-[5-(2,6-difluoro-4-methoxyphenyl)-2-[6-(difluoromethyl)pyridin-2-yl]-1-methyl-3-oxo-2,3-dihydro-1H-pyrazol-4-yl]-4-(difluoromethoxy)benzamide], the EC50 in assay [1] is 3400 nM; in assay [2] it was 9 nM.

Consider `COc1cc(N2CCOCC2)nc(-n2c(=O)c(NC(=O)c3ccc(OC(F)F)cc3)c(-c3c(F)cc(OC)cc3F)n2C)c1` [Example 364, N-(5-(2,6-Difluoro-4-methoxyphenyl)-2-(4-methoxy-6-morpholinopyridin-2-yl)-1-methyl-3-oxo-2,3-dihydro-1H-pyrazol-4-yl)-4-(difluoromethoxy)benzamide], for which the EC50 in assay [1] was found to be 2100 nM; in assay [2], 62 nM.

Consider `Cn1c(-c2ccc(C(F)(F)F)cc2)c(NC(=O)c2ccc(OC(F)F)cc2)c(=O)n1-c1ncccc1C(F)(F)F` [Example 301, 4-(difluoromethoxy)-N-{1-methyl-3-oxo-5-[4-(trifluoromethyl)phenyl]-2-[3-(trifluoromethyl)pyridin-2-yl]-2,3-dihydro-1H-pyrazol-4-yl}benzamide], for which the EC50 in assay [1] came to 140 nM; in assay [2], 6 nM.

Turning to `COc1cc(Cl)cc(-n2c(=O)c(NC(=O)c3ccc(OC(F)F)cc3)c(-c3c(F)cc(OC)cc3F)n2C)c1` [Example 124, N-[2-(3-chloro-5-methoxyphenyl)-5-(2,6-difluoro-4-methoxyphenyl)-1-methyl-3-oxo-2,3-dihydro-1H-pyrazol-4-yl]-4-(difluoromethoxy)benzamide], the EC50 in assay [1] was more than 10000 nM; in assay [2] it was 4 nM.

`COc1cc(F)c(-c2c(NC(=O)c3ccc(OC(F)F)cc3)c(=O)n(-c3nc(N4CCNC(=O)C4)ccc3C(F)(F)F)n2C)c(F)c1` [Example 214, N-[5-(2,6-difluoro-4-methoxyphenyl)-1-methyl-3-oxo-2-[6-(3-oxopiperazin-1-yl)-3-(trifluoromethyl)pyridin-2-yl]-2,3-dihydro-1H-pyrazol-4-yl]-4-(difluoromethoxy)benzamide]: the EC50 in assay [1] came to 150 nM; in assay [2] it was 4 nM.

For the molecule `COc1cc(F)c(-c2c(NC(=O)c3ccc(OC(F)F)cc3)c(=O)n(-c3nc(OC)ccc3C(F)(F)F)n2C)c(F)c1` [Example 257, N-[5-(2,6-difluoro-4-methoxyphenyl)-2-[6-methoxy-3-(trifluoromethyl)pyridin-2-yl]-1-methyl-3-oxo-2,3-dihydro-1H-pyrazol-4-yl]-4-(difluoromethoxy)benzamide], the EC50 in assay [1] is more than 10000 nM; in assay [2] it was 10 nM.

On to `COc1cc(F)c(-c2c(NC(=O)c3ccc(OC(F)F)cc3)c(=O)n(-c3cc(Cl)cc(C(F)(F)F)c3)n2C)c(F)c1` [Example 131, N-{2-[3-chloro-5-(trifluoromethyl)phenyl]-5-(2,6-difluoro-4-methoxyphenyl)-1-methyl-3-oxo-2,3-dihydro-1H-pyrazol-4-yl}-4-(difluoromethoxy)benzamide], for which the EC50 in assay [1] was more than 10000 nM; in assay [2], 11 nM.

Regarding `COc1cc(F)c(-c2c(NC(=O)c3ccc(OC(F)F)cc3)c(=O)n(-c3cccc(N4CC(C)(O)C4)n3)n2C)c(F)c1` [Example 312, N-[5-(2,6-difluoro-4-methoxyphenyl)-2-[6-(3-hydroxy-3-methylazetidin-1-yl)pyridin-2-yl]-1-methyl-3-oxo-2,3-dihydro-1H-pyrazol-4-yl]-4-(difluoromethoxy)benzamide], the EC50 stood at 2000 nM in assay [1] and 12 nM in assay [2].

As to `COc1cc(F)c(-c2c(NC(=O)c3ccc(OC(F)F)cc3)c(=O)n(-c3cccc(C(F)(F)F)n3)n2C)c(F)c1` [Example 156, N-[5-(2,6-difluoro-4-methoxyphenyl)-1-methyl-3-oxo-2-[6-(trifluoromethyl)pyridin-2-yl]-2,3-dihydro-1H-pyrazol-4-yl]-4-(difluoromethoxy)benzamide], the EC50 in assay [1] turned out to be 4000 nM; in assay [2] it was 15 nM.

As to `COc1cc(F)c(-c2c(NC(=O)c3ccc(OC(F)F)cc3)c(=O)n(-c3cccc(Cl)c3C)n2C)c(F)c1` [Example 37, N-[2-(3-chloro-2-methylphenyl)-5-(2,6-difluoro-4-methoxyphenyl)-1-methyl-3-oxo-2,3-dihydro-1H-pyrazol-4-yl]-4-(difluoromethoxy)benzamide], the EC50 in assay [1] was more than 10000 nM; in assay [2] it was 19 nM.

Turning to `Cn1c(-c2ccc(C3CC3)cc2)c(NC(=O)c2ccc(OC(F)F)cc2)c(=O)n1-c1ncccc1C(F)(F)F` [Example 277, N-[5-(4-cyclopropylphenyl)-1-methyl-3-oxo-2-[3-(trifluoromethyl)pyridin-2-yl]-2,3-dihydro-1H-pyrazol-4-yl]-4-(difluoromethoxy)benzamide], the EC50 in assay [1] worked out at 730 nM; in assay [2] it was 17 nM.

For `CNC(=O)[C@H](C)Nc1ccc(C(F)(F)F)c(-n2c(=O)c(NC(=O)c3ccc(OC(F)F)cc3)c(-c3c(F)cc(OC)cc3F)n2C)n1` [Example 232, N-[5-(2,6-difluoro-4-methoxyphenyl)-1-methyl-2-(6-{[(1S)-1-(methylcarbamoyl)ethyl]amino}-3-(trifluoromethyl)pyridin-2-yl)-3-oxo-2,3-dihydro-1H-pyrazol-4-yl]-4-(difluoromethoxy)benzamide], the results for the EC50 in assay [1] and in assay [2] were more than 10000 nM and 5 nM, respectively.

The record behind these values is patent US12577206B2 (BRISTOL-MYERS SQUIBB COMPANY, priority 2020, dated 2026).
